The record followed here is EPA's ToxValDB 9.5.

Molecules are shown by their SMILES. “And” between values parts separate entries of the source, which are not always exact repeats. Identical values can stand only once.

For this data set, the system named is Oryctolagus sp. To be noted: duration: 12 days, inhalation, New Zealand.
Setting [1] is: reproduction developmental, F, generation: P0, P0: Developmental: Uterus: Implantation + P0: Developmental: Uterus: Pre-Implantation Loss + P0: Developmental: Uterus: Resorptions, Mean/….
[2] abbreviates: reproduction developmental, F, generation: P0, P0: Developmental: Uterus: Resorptions, Mean/Litter + P0: General Toxicity: Whole Body: Body Weight Change + P0: General Toxicity: Whole ….
Setting [3] is: reproduction developmental, F, generation: P0, P0: Whole Body: Clinical Observations.

The NOAEL is the highest dose or exposure tested at which no adverse effect was seen. A word on the LOAEL: it is the lowest dose or exposure tested at which an adverse effect was seen.

Take `FC(Cl)C(F)(F)F` (centres undefined) [2-Chloro-1,1,1,2-tetrafluoroethane]: the NOAEL by setting is: (developmental, M/F, generation: F1, F1: Developmental: Uterus: Dead Fetuses + F1: Developmental: Uterus: Fetuses, Live + F1: Developmental: Whole Body: Body Weight, Fetal + F1…) 279000 mg/m3; (developmental, M/F, generation: F1, F1: Developmental: Whole Body: External Abnormalities + F1: Developmental: Whole Body: Live Pups Born + F1: Developmental: Whole Body: Pup …) 27900 mg/m3 and 83700 mg/m3; (reproduction developmental, F, generation: P0, P0: Developmental: Uterus: Implantation + P0: Developmental: Uterus: Number of Viable Fetuses + P0: Developmental: Uterus: Pre-Implantation …) 279000 mg/m3; under setting [1], 27900 mg/m3; (reproduction developmental, F, generation: P0, P0: Developmental: Uterus: Implantation + P0: Developmental: Uterus: Pre-Implantation Loss + P0: Reproductive: Ovary: Corpora Lutea) 279000 mg/m3; under setting [2], 83700 mg/m3. Further, the NEL (developmental, M/F, generation: F1, F1: Uterus: Fetuses, Dead + F1: Uterus: Fetuses, Live + F1: Whole Body: Body Weight, Fetal + F1: Whole Body: External Abnormalities) was determined as 279000 mg/m3; the NEL (developmental, M/F, generation: F1, F1: Whole Body: External Abnormalities + F1: Whole Body: Live Pups Born + F1: Whole Body: Pup Weight Relative to Litter + F1: Whole Body: …) was found to be 279000 mg/m3; the NEL (reproduction developmental, F, generation: P0, P0: Liver: Liver Weight, Absolute + P0: Liver: Liver Weight, Relative + P0: Ovary: Corpora Lutea + P0: Uterus: Implantation + P0: Uterus: …) worked out at 279000 mg/m3; the NEL (reproduction developmental, F, generation: P0, P0: Ovary: Corpora Lutea + P0: Uterus: Implantation + P0: Uterus: Pre-Implantation Loss + P0: Uterus: Resorptions, Mean/Litter + P0: Whole …) is 279000 mg/m3; the NEL under setting [3] amounted to 83700 mg/m3. In addition, the LOAEL was found to be 83700 mg/m3 under setting [1] and 279000 mg/m3 under setting [2]. The compound further came in with an LEL under setting [3] of 279000 mg/m3.
